One assay deals with Nav1.1. The assay can be described thus: Whole-cell patch clamp, Nav1.1 in HEK293 cells. The format is cell-based, rat. To be noted: 1 µM, −10 mV from −80 mV. The source says:
Nine sodium channel subtypes have been identified and classified as TTX-S (Nav1.1–Nav1.4, Nav1.6, and Nav1.7) or TTX-R types (Nav1.5, Nav1.8, and Nav1.9). […] However, the subtype selectivity of JZTX-34 on the subtype of sodium channel is still unknown. In this work, effects of JZTX-34 on VGSC subtypes (Nav1.1–Nav1.8) were examined. Nav1.1–Nav1.7 were transfected into HEK293 cells and Nav1.8 currents were expressed in ND cells. Inward sodium currents were elicited by a 50 ms depolarizing potential to −10 mV from a holding potential of −80 mV every 5 s. […] No effects on other sodium channel subtypes were found (Nav1.1, Nav1.2, Nav1.4–Nav1.6, and Nav1.8) (Figure S2). […]
(§1) The HEK293T cells were maintained in standard culture conditions (5% CO2 and 37 °C). […] After culturing for 36–72 h, cells with obvious green fluorescence were selected for sodium currents recordings the internal solution for sodium currents recording that contained (in mM) 140 CsF, 5 NaCl, 10 HEPES, 3 Na2-ATP, and 10 EGTA. […]
(§2) Sodium currents were recorded from DRG, HEK293, and ND cells by the whole-cell patch-clamp technique at 25 °C. […] Experiments date were acquired from whole-cell Axon 700B patch clamp amplifier (Molecular Devices, Sunnyvale, CA, USA) and analyzed by the program Clampfit10.0 (Molecular Devices, Sunnyvale, CA, USA) and Sigmaplot. […]

In the next assay the target is T1, rNav1.3 (Rattus norvegicus, UniProt P08104).
T1 construct: expressed in transfected cells; host or cells: HEK293 (HEK293T) cells, transient
T1 sequence (Q07699 19-218): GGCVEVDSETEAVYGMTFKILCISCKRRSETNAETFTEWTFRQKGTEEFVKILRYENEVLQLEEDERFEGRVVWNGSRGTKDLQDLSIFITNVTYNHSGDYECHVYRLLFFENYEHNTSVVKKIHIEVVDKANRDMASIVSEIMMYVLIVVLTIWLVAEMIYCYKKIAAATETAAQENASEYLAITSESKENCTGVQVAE
T1 sequence (P08104 whole entry): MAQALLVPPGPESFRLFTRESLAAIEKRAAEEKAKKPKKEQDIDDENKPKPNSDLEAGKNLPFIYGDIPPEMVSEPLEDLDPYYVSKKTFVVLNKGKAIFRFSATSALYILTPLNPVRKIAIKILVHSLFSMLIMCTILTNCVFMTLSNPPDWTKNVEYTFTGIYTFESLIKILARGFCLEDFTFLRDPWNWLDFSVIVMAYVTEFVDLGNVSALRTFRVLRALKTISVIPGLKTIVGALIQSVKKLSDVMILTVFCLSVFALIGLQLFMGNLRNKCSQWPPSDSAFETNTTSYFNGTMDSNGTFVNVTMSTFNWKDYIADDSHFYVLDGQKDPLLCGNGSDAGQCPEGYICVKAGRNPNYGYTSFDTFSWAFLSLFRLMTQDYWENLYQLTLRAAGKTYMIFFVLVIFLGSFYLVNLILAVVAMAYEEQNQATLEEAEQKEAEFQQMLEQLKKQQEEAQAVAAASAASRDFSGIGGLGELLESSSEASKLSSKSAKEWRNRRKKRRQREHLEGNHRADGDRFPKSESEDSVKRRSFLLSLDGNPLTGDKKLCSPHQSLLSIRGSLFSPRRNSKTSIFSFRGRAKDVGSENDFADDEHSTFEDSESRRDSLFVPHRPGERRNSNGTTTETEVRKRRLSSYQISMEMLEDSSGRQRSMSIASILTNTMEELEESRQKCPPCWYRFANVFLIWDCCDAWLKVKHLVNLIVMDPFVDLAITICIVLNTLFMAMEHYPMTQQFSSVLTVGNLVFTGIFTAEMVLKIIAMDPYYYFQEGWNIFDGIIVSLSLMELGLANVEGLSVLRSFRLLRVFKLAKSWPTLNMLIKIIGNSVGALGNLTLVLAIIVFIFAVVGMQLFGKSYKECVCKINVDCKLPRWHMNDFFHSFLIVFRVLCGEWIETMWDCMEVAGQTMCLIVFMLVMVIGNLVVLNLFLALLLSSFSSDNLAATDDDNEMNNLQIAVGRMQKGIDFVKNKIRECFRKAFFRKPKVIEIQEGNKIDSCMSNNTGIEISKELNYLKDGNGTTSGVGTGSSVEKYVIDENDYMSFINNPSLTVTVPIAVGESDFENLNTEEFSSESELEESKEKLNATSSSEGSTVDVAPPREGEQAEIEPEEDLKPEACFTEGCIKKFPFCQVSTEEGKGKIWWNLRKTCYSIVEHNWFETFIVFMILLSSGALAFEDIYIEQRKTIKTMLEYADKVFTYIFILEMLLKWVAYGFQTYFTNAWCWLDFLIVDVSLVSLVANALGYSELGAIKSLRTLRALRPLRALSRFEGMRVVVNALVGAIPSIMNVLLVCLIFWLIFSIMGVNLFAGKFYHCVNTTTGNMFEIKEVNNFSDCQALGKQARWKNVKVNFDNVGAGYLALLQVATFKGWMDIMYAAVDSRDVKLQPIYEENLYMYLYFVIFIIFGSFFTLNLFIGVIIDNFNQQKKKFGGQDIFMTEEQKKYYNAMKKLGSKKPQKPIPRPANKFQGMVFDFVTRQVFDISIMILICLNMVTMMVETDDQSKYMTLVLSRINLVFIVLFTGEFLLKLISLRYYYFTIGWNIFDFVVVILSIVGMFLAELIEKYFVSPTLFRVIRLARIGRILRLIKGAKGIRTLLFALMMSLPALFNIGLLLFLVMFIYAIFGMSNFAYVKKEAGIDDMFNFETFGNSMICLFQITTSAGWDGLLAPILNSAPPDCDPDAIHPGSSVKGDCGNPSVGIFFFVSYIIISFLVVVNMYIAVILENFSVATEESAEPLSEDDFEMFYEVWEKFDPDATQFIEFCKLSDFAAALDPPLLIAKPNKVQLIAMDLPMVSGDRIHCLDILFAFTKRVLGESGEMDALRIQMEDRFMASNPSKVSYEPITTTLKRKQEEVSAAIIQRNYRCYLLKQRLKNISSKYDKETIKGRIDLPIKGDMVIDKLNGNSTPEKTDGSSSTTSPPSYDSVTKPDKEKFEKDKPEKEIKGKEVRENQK
The assay can be described thus: Whole-cell patch clamp, Nav1.3 in HEK293 cells. It counts as cell-based. The settings on record: −10 mV from −80 mV holding.
Excerpt: Nine sodium channel subtypes have been identified and classified as TTX-S (Nav1.1–Nav1.4, Nav1.6, and Nav1.7) or TTX-R types (Nav1.5, Nav1.8, and Nav1.9). […] However, the subtype selectivity of JZTX-34 on the subtype of sodium channel is still unknown. In this work, effects of JZTX-34 on VGSC subtypes (Nav1.1–Nav1.8) were examined. Nav1.1–Nav1.7 were transfected into HEK293 cells and Nav1.8 currents were expressed in ND cells. Inward sodium currents were elicited by a 50 ms depolarizing potential to −10 mV from a holding potential of −80 mV every 5 s. […] No effects on other sodium channel subtypes were found (Nav1.1, Nav1.2, Nav1.4–Nav1.6, and Nav1.8) (Figure S2).
Figure 2 Selectivity of JZTX-34 on sodium channel subtypes. […]
as §1, §2
For orientation: Patch clamp records ionic current or voltage across a cell membrane.

Assay [1] has as its system TTX-R sodium channels from rat DRG neurons. To be noted: ref [18]; cited from earlier work. From the text:
In this study, the analgesic effect and mechanism of JZTX-34 on pain were investigated.

Assay [2] deals with acetic acid-induced writhing response in mice. It counts as in vivo, mouse (Kunming). The settings on record: counted 30 min after 0.8% acetic acid i.p., control 61, n = 6.

Like-named read-outs stand apart in the source and are kept apart here. Residues, ends and D or L forms follow the SMILES beside them.

The text below walks through data of paper PMC5848165 (Toxins, 2018).

As a reminder, the IC50 is the midpoint of a concentration-inhibition curve.

Turning to `CC(C)C[C@@H]1NC(=O)[C@H](Cc2c[nH]c3ccccc23)NC(=O)[C@H](CCC(=O)O)NC(=O)[C@H](CCCNC(=N)N)NC(=O)[C@@H](NC(=O)[C@H](C)N)CSSC[C@@H]2NC(=O)[C@@H]3CSSC[C@@H](C(=O)N[C@H](C(=O)N[C@@H](Cc4c[nH]c5ccccc45)C(=O)N[C@@H](CC(=O)O)C(=O)N[C@@H](Cc4c[nH]c5ccccc45)C(=O)N[C@H](C(=O)N[C@H](C(=O)O)C(C)C)[C@@H](C)O)C(C)C)NC(=O)[C@H](Cc4c[nH]cn4)NC(=O)[C@H](Cc4ccc(O)cc4)NC(=O)[C@@H]4CCCN4C(=O)[C@H](Cc4c[nH]c5ccccc45)NC(=O)[C@H](CCCCN)NC(=O)[C@H](CCCCN)NC(=O)[C@H](CCCNC(=N)N)NC(=O)[C@H](CSSC[C@H](NC(=O)CNC(=O)CNC1=O)C(=O)N[C@@H](CO)C(=O)N[C@@H](CCCCN)C(=O)N[C@@H](CC(=O)O)C(=O)N[C@@H](C)C(=O)N[C@@H](CC(=O)O)C(=O)N3)NC(=O)[C@H](CCC(=O)O)NC(=O)[C@H](CC(C)C)NC(=O)[C@H](Cc1c[nH]cn1)NC(=O)[C@H](C)NC2=O` [JZTX-34, Jingzhaotoxin-34] (HELM PEPTIDE1{A.C.R.E.W.L.G.G.C.S.K.D.A.D.C.C.A.H.L.E.C.R.K.K.W.P.Y.H.C.V.W.D.W.T.V}$PEPTIDE1,PEPTIDE1,2:R3-16:R3|PEPTIDE1,PEPTIDE1,9:R3-21:R3|PEPTIDE1,PEPTIDE1,15:R3-29:R3$$$V2.0; N-terminus and C-terminus assumed), in the assay with Nav1.1, the “effect on Nav1.1 currents” value is listed as “No effects”. Moreover, the “reduction of Nav1.3 currents” value on rNav1.3 (1 µM, mean ± S.E.) was 29.4 ± 4.6%. For the same compound, the IC50 at rNav1.3 (Hill fit, n = 5) amounted to 7.95 µM. The “effect on TTX-R sodium currents (previous work)” value in assay [1] is reported as “no inhibition on tetrodotoxin-resistant (TTX-R) sodium currents”. Besides, the values for the number of writhing in assay [2] (0.5 mg/kg i.p.), in assay [2] (1 mg/kg i.p.) and in assay [2] (2 mg/kg i.p.) were 38, 26 and 11, respectively.
